Data as given in patent US20120028284A1, “TRAPPING COMPOUNDS AND METHOD FOR IDENTIFYING REACTIVE METABOLITES” (EISAI R&D MANAGEMENT CO., LTD., priority 2009, published 2012).

How the values were obtained:
[1] = Trapping of acylglucuronides by incubation with compound of formula (I) in buffer, neutral loss LC-MS/MS; conditions: 100 μM diclofenac acylglucuronide, pH7.4 buffer, 60 min, 37° C.
Method: The resulting mixtures were pre-warmed at 37° C. for 5 min.
(§1) MS analyses were performed on an LTQ Orbitrap FTMS (Thermo Fisher Scientific, Inc., Bremen, Germany). The ESI ion source was operated in the positive ion mode. The entire eluent was sprayed into the mass spectrometer at +5 kV and desolvation of the solvent droplets was further aided by a heated capillary temperature of 350° C. Mass spectra collected in the neutral loss scanning mode were obtained by scanning over the range m/z 200-1100 at 30000 resolution.
For complete profiling of reactive metabolites, samples were first subjected to chromatographic separations with a Prominence LC system with an auto-sampler (Shimadzu Corp., Kyoto, Japan) and eluents were introduced to the LTQ Orbitrap FTMS operated in the neutral loss scanning mode. […] The solvent composition was then held at 100% B for 8 min before re-equilibration at initial conditions. […] Data acquisition was carried out using the Xcaliber version 2.0 software (Thermo Fisher Scientific, Inc., Bremen, Germany).

[2] = test system: human liver microsomal preparations (cytochrome P450 enzyme preparations); assay: Trapping of "soft" and "hard" reactive metabolites in microsomal incubations with compound of formula (I), neutral loss LC-MS/MS; type: in vitro ADME; conditions: 50 μM test compound, 2 mg/ml microsomal proteins, 3 mM NADPH, 37° C.; for adducts of reactive metabolites with ECHK detected: trapping agent ECHK 1 mM; for adducts of reactive metabolites with ECHK detected / adducts of reactive metabolites with EHCK detected: neutral loss scanning of 129 Da; for adducts of reactive metabolites with ECO detected: trapping agent ECO 1 mM, neutral loss scanning of 129 Da or 147 Da; for adducts of reactive metabolites with EHCK detected: trapping agent EHCK 1 mM
Method: All microsomal incubations described herein were performed at 37° C. in a water bath or on a heat block. The test compound was mixed with human liver microsomal preparations (cytochrome P450 enzyme preparations) in 100 mM potassium phosphate buffer (pH7.4) including 0.1 mM EDTA and the compound of formula (I). The resulting mixtures were pre-warmed at 37° C. for 5 min. To the reaction mixtures was then added the co-factor-NADPH (to initiate the reaction) to yield a final volume of 500 μl.
The resulting reaction mixtures contained 50 μM test compounds, 2 mg/ml microsomal proteins, 1 mM mixture of compound of formula (I) and 3 mM NADPH.
After 15 or 60 min incubation, the reactions were terminated by the addition of 1000 μl of 50% methanol/50% acetonitrile. The resulting mixtures were centrifuged at 10,000 g for 10 min at 4° C. to pellet the precipitated protein, and the supernatants were dried up. The resulting residue was solubilized with 50% methanol.
as §1
For complete profiling of reactive metabolites, samples were first subjected to chromatographic separations with a Prominence LC system with an auto-sampler (Shimadzu Corp., Kyoto, Japan) and eluents were introduced to the LTQ Orbitrap FTMS operated in the neutral loss scanning mode. An L-column ODS (Octadecylsilyl-silica gels; 2.1×150 mm, Chemicals Evaluation and Research Institute, Tokyo, Japan) was used for the chromatographic separation. The chromatographic system used a binary solvent system delivered as a gradient of solvent A (5 mM ammonium acetate) and solvent B (95% acetonitrile included 5 mM ammonium acetate). […] The solvent composition was then held at 100% B for 8 min before re-equilibration at initial conditions. LC-MS/MS analyses were carried out on 20 μl aliquots of cleaned samples. Data acquisition was carried out using the Xcaliber version 2.0 software (Thermo Fisher Scientific, Inc., Bremen, Germany).

In the case of `O=C(Cc1ccccc1Nc1c(Cl)cccc1Cl)O[C@@H]1O[C@H](C(=O)O)[C@@H](O)[C@H](O)[C@H]1O` [diclofenac acylglucuronide, Diclofenac acylglucuronide], the “adduct of acylglucuronide with ECHK detected” value ([1]; trapping agent ECHK 1 mM, neutral loss scanning of 129 Da) is reported as “adduct of diclofenac acylglucuronide with ECHK which was detected”, the “adduct of acylglucuronide with ECO detected” value ([1]; trapping agent ECO 1 mM, neutral loss scanning of 129 Da and 147 Da) is reported as “adduct of diclofenac acylglucuronide with ECO which was detected” and the “adduct of acylglucuronide with EHCK detected” value ([1]; trapping agent EHCK 1 mM, neutral loss scanning of 129 Da) is reported as “adduct of diclofenac acylglucuronide with EHCK which was detected”.
In the case of `O=C(O)Cc1ccccc1Nc1c(Cl)cccc1Cl` [diclofenac, Diclofenac], the “adducts of reactive metabolites with ECHK detected” value [2] is reported as “two adducts”, the “adducts of reactive metabolites with ECO detected” value [2] is reported as “two adducts” and the “adducts of reactive metabolites with EHCK detected” value [2] is reported as “two adducts”.
In the case of `c1coc(-c2cccs2)c1` [2-[2-thienyl]-furan, 2-[2-Thienyl]-furan], the “adducts of reactive metabolites with ECHK detected” value [2] is reported as “three adducts”, the “adducts of reactive metabolites with ECO detected” value [2] is reported as “three adducts” and the “adducts of reactive metabolites with EHCK detected” value [2] is reported as “three adducts”.
